#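 Compound exposure: 48 hours, 5 concentrations, 96-well plates. Abbreviation: GI50, concentration required for 50% inhibition of growth.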 Activity calls are given as the source filed them. Cut-off read from the data, not from the text of the source: active = GI50 up to about 1.1 µM and inactive = higher.
# Assays:
# Test in all cases: inhibition of tumour cell growth, NCI panel, 48 h
# HOP-92 = system: HOP-92
# Hs-578T = system: Hs-578T
# HL-60 = system: HL-60
# UACC-62 = system: UACC-62
# MOLT-4 = system: MOLT-4
# ACHN = system: ACHN
# PC-3 = system: PC-3
# K562 = system: K562
# MDA-MB-435 = system: MDA-MB-435
# IGROV-1 = system: IGROV-1
# HCT-15 = system: HCT-15
# SF-539 = system: SF-539
# OVCAR-5 = system: OVCAR-5
# CAKI-1 = system: CAKI-1
# NCI/ADR-RES = system: NCI/ADR-RES
# SK-MEL-2 = system: SK-MEL-2
# SK-MEL-5 = system: SK-MEL-5
# HOP-62 = system: HOP-62
# SNB-75 = system: SNB-75
# HCT-116 = system: HCT-116
# UACC-257 = system: UACC-257
# MCF7 = system: MCF7
# NCI-H522 = system: NCI-H522
# A498 = system: A498
# SW-620 = system: SW-620
# DU-145 = system: DU-145
# BT-549 = system: BT-549
# T47D = system: T47D
# NCI-H226 = system: NCI-H226
# OVCAR-8 = system: OVCAR-8
# TK-10 = system: TK-10
# EKVX = system: EKVX
# COLO 205 = system: COLO 205
# MDA-MB-231 = system: MDA-MB-231
# OVCAR-3 = system: OVCAR-3
# M14 = system: M14
# SK-MEL-28 = system: SK-MEL-28
# HCC 2998 = system: HCC 2998
# Malme-3M = system: Malme-3M
# A549 = system: A549
# SN12C = system: SN12C
# HT-29 = system: HT-29
# MDA-N = system: MDA-N
# SF-295 = system: SF-295
# OVCAR-4 = system: OVCAR-4
# UO-31 = system: UO-31
# SNB-19 = system: SNB-19
# U-251 = system: U-251
# KM12 = system: KM12
# SK-OV-3 = system: SK-OV-3
# RPMI-8226 = system: RPMI-8226
# NCI-H23 = system: NCI-H23
# SF-268 = system: SF-268
# LOX IMVI = system: LOX IMVI
# CCRF-CEM = system: CCRF-CEM
# NCI-H460 = system: NCI-H460
# 786-0 = system: 786-0
# RXF 393 = system: RXF 393
# SR = system: SR
structure (smiles),measurement,setting,value
O=C(O)/C(=C\c1ccccc1)Cc1ccccc1,GI50,HOP-92,> 100 µM (inactive)
same,GI50,Hs-578T,> 100 µM (inactive)
same,GI50,HL-60,> 100 µM (inactive)
same,GI50,UACC-62,> 100 µM (inactive)
same,GI50,MOLT-4,> 100 µM (inactive)
same,GI50,ACHN,> 100 µM (inactive)
same,GI50,PC-3,> 100 µM (inactive)
same,GI50,K562,> 100 µM (inactive)
same,GI50,MDA-MB-435,> 100 µM (inactive)
same,GI50,IGROV-1,> 100 µM (inactive)
same,GI50,HCT-15,> 100 µM
same,GI50,SF-539,83 µM (inactive)
same,GI50,OVCAR-5,> 100 µM (inactive)
same,GI50,CAKI-1,> 100 µM (inactive)
same,GI50,NCI/ADR-RES,> 100 µM (inactive)
same,GI50,SK-MEL-2,> 100 µM (inactive)
same,GI50,SK-MEL-5,> 100 µM (inactive)
same,GI50,HOP-62,> 100 µM (inactive)
same,GI50,SNB-75,> 100 µM (inactive)
same,GI50,HCT-116,> 100 µM (inactive)
same,GI50,UACC-257,> 100 µM (inactive)
same,GI50,MCF7,> 100 µM (inactive)
same,GI50,NCI-H522,> 100 µM (inactive)
same,GI50,A498,> 100 µM (inactive)
same,GI50,SW-620,> 100 µM (inactive)
same,GI50,DU-145,> 100 µM (inactive)
same,GI50,BT-549,> 100 µM (inactive)
same,GI50,T47D,> 100 µM (inactive)
same,GI50,NCI-H226,> 100 µM (inactive)
same,GI50,OVCAR-8,> 100 µM (inactive)
same,GI50,TK-10,> 100 µM (inactive)
same,GI50,EKVX,> 100 µM (inactive)
same,GI50,COLO 205,> 100 µM (inactive)
same,GI50,MDA-MB-231,> 100 µM (inactive)
same,GI50,OVCAR-3,> 100 µM (inactive)
same,GI50,M14,> 100 µM (inactive)
same,GI50,SK-MEL-28,> 100 µM (inactive)
same,GI50,HCC 2998,> 100 µM (inactive)
same,GI50,Malme-3M,> 100 µM (inactive)
same,GI50,A549,> 100 µM (inactive)
same,GI50,SN12C,> 100 µM (inactive)
same,GI50,HT-29,> 100 µM (inactive)
same,GI50,MDA-N,> 100 µM (inactive)
same,GI50,SF-295,> 100 µM (inactive)
same,GI50,OVCAR-4,> 100 µM (inactive)
same,GI50,UO-31,> 100 µM (inactive)
same,GI50,SNB-19,> 100 µM (inactive)
same,GI50,U-251,> 100 µM (inactive)
same,GI50,KM12,> 100 µM (inactive)
same,GI50,SK-OV-3,> 100 µM (inactive)
same,GI50,RPMI-8226,> 100 µM (inactive)
same,GI50,NCI-H23,> 100 µM (inactive)
same,GI50,SF-268,> 100 µM (inactive)
same,GI50,LOX IMVI,> 100 µM (inactive)
same,GI50,CCRF-CEM,> 100 µM (inactive)
same,GI50,NCI-H460,> 100 µM (inactive)
same,GI50,786-0,> 100 µM (inactive)
same,GI50,RXF 393,> 100 µM (inactive)
COc1ccccc1C1SCC(=O)N1c1ccc(-n2c(-c3ccccc3)nc3ccccc3c2=O)cc1 (stereo not given),GI50,HOP-92,19.2 µM (inactive)
same,GI50,Hs-578T,39.4 µM (inactive)
same,GI50,HL-60,> 10 µM (inactive)
same,GI50,UACC-62,29.2 µM (inactive)
same,GI50,MOLT-4,28.8 µM (inactive)
same,GI50,ACHN,71.8 µM (inactive)
same,GI50,PC-3,80.4 µM (inactive)
same,GI50,K562,47.9 µM (inactive)
same,GI50,MDA-MB-435,53.8 µM (inactive)
same,GI50,IGROV-1,46.6 µM (inactive)
same,GI50,HCT-15,54.2 µM
same,GI50,SF-539,> 100 µM (inactive)
same,GI50,OVCAR-5,> 100 µM (inactive)
same,GI50,CAKI-1,82 µM (inactive)
same,GI50,NCI/ADR-RES,19.3 µM (inactive)
same,GI50,SK-MEL-2,> 100 µM (inactive)
same,GI50,SK-MEL-5,37.5 µM (inactive)
same,GI50,HOP-62,> 100 µM (inactive)
same,GI50,SNB-75,3.51 µM (inactive)
same,GI50,HCT-116,57.1 µM (inactive)
same,GI50,UACC-257,> 100 µM (inactive)
same,GI50,MCF7,39.1 µM (inactive)
same,GI50,NCI-H522,40.3 µM (inactive)
same,GI50,A498,36 µM (inactive)
same,GI50,SW-620,63.5 µM (inactive)
same,GI50,DU-145,52.5 µM (inactive)
same,GI50,BT-549,> 100 µM (inactive)
same,GI50,T47D,12.9 µM (inactive)
same,GI50,NCI-H226,74.1 µM (inactive)
same,GI50,OVCAR-8,60.4 µM (inactive)
same,GI50,TK-10,> 100 µM (inactive)
same,GI50,EKVX,> 100 µM (inactive)
same,GI50,COLO 205,> 100 µM (inactive)
same,GI50,MDA-MB-231,47.6 µM (inactive)
same,GI50,OVCAR-3,> 100 µM (inactive)
same,GI50,SK-MEL-28,> 100 µM (inactive)
same,GI50,HCC 2998,70.6 µM (inactive)
same,GI50,Malme-3M,69.2 µM (inactive)
same,GI50,A549,62.7 µM (inactive)
same,GI50,SN12C,> 100 µM (inactive)
same,GI50,HT-29,64.1 µM (inactive)
same,GI50,MDA-N,> 100 µM (inactive)
same,GI50,SF-295,75.5 µM (inactive)
same,GI50,OVCAR-4,15.8 µM (inactive)
same,GI50,UO-31,9.1 µM (inactive)
same,GI50,SNB-19,> 100 µM (inactive)
same,GI50,U-251,73.1 µM (inactive)
same,GI50,SR,81.7 µM (inactive)
same,GI50,KM12,29.9 µM (inactive)
same,GI50,SK-OV-3,> 100 µM (inactive)
same,GI50,RPMI-8226,> 100 µM (inactive)
same,GI50,NCI-H23,> 100 µM (inactive)
same,GI50,SF-268,78.2 µM (inactive)
same,GI50,LOX IMVI,77.8 µM (inactive)
same,GI50,CCRF-CEM,44.5 µM (inactive)
same,GI50,NCI-H460,40.7 µM (inactive)
same,GI50,786-0,> 100 µM (inactive)

# Source: ChEMBL document CHEMBL1201862, “PubChem BioAssay data set” (2004)
